System: neonatal rat optic nerve cultures
Experiment: Mitomycin C treatment of optic nerve cultures
Assay type: cell-based
Conditions: 25 μg/ml for 30 minutes, PND-1, then 24 or 48 hours
Description: A stock solution of 0.5 mg/ml mitomycin C (Sigma) in HBSS (Gibco) was prepared and stored at 4° C. in the dark. Cultures were treated with 25 μg/ml mitomycin C diluted in N2/0.5% FCS for 30 minutes at 37° C. in the dark. The cultures were washed twice with N2/0.5% FCS and cultured for an additional 24 or 48 hours.
To test whether inhibition of proliferation per se affected the timing of GalC(+) appearance, optic nerve cultures prepared on PND-1 were treated with mitomycin C. After plating, the cells were incubated with 25 μg/ml mitomycin C for 30 minutes. After washing, the cultures were carried for an additional 24 or 48 hours.

In the case of `CO[C@@]12[C@H](COC(N)=O)C3=C(C(=O)C(C)=C(N)C3=O)N1C[C@@H]1N[C@@H]12` [mitomycin C], the “numbers of A2B5(+) cells” value is reported as “Decreased numbers of A2B5(+) cells” and the “proportion of GalC(+) cells” value is reported as “without a concomitant increase in the proportion of GalC(+) cells”.
